Measurements reported in article PMC3624796 (Journal of Medicinal Chemistry, 2013).

Target: T1, T4 lysozyme L99A/M102H† (Enterobacteria phage T4, UniProt P00720, C54T/C97A/E108V/L99A/M102H/N144D/S117V/S38D/T142C/T21C)
Assay type: binding
Settings: crystal structure

| SMILES | hydrogen bond distance between ligand and His102 |
| --- | --- |
| C#CC(O)c1ccccc1 (stereo not drawn) [1-phenyl-2-propyn-1-ol, 1-phenyl-2-propyn-1-ol] | 2.77 Å |
| C=CCc1ccccc1O [2-allyl phenol] | 3.00 Å |
| Nc1ncc(Cl)s1 [2-amino-5-chloro thiazole] | 2.89 Å |
| O=Cc1cc(O)ccc1Br [2-bromo-5-hydroxybenzaldehyde] | 2.50 Å |
| Cc1cc(C(F)(F)F)n[nH]1 [3-methyl-5-(trifluoromethyl) pyrazole] | 2.90 Å |
| Brc1c[nH]cn1 [4-bromoimidazole] | 2.93 Å |
| FC(F)(F)c1c[nH]cn1 [4-trifluoromethyl imidazole] | 2.85 Å |

Test system: T4 lysozyme L99A
Settings: cited from earlier work

| SMILES | binding to L99A cavity |
| --- | --- |
| Oc1ccccc1 [phenol] | does not measurably bind |

Target: T1, T4 lysozyme L99A/M102H†
Assay type: binding
Settings: not given

| SMILES | ΔGmelt (change of stability on ligand binding, ΔTm × ΔS) |
| --- | --- |
| O=[N+]([O-])c1ccc(O)cc1 [4-nitrophenol] | 1.4 kcal/mol |
| N#Cc1cc(Br)ccc1O [5-bromo-2-hydroxybenzonitrile] | 0.6 kcal/mol |
| C=CSc1ccccc1 [phenyl vinyl sulfide] | 0.25 kcal/mol |

Target: T1, T4 lysozyme L99A/M102H†
Assay type: binding
Settings: not given
Remark: another data set of the same source

| SMILES | interaction with His102 stronger than with Gln102 (double perturbation analysis) |
| --- | --- |
| O=[N+]([O-])c1ccc(O)cc1 [4-nitrophenol] | 2.4 kcal/mol |
